Results: publication PMC4122495, “Small Molecule Deubiquitinase Inhibitors Promote Macrophage Anti-Infective Capacity” (PLoS ONE, 2014)
Converted amounts (≈) assume the structure as drawn.

Key:
MNV-1 = MNV-1 infection of RAW264.7 cells and plaque assay; assay type: cell-based, murine norovirus; settings: RAW264.7 pre-treated 0.5 h with 2.5 µM; MOI 5; 8 h infection; plaque assay
Description: RAW264.7 cells were plated at a density of 5×10^5 cells/ml in each well of a 12-well plate and allowed to attach overnight. The following day, cells were incubated with either 5 µM WP1130 or 2.5 µM compound 9, for 30 min at 37°C. After incubation, cells were placed on ice for 1 hour where they were infected with MNV-1 at an MOI of 5. Cells were then washed three times with ice-cold PBS. Cells treated with compound 9 received media alone after washing, while media containing WP1130 or DMSO was added back to cells and the infection was allowed to proceed for 8 hours. Cells were freeze-thawed twice, and viral titers were determined by plaque assay as previously described.

Norwalk virus replicon = assay: HuNoV (Norwalk virus) replicon assay in HG23 cells, qRT-PCR; assay type: cell-based, human norovirus; settings: 2.5 µM for 2 hours, genomes quantitated after 24 h by qRT-PCR, normalized to DMSO
Description: HG23 cells containing the Norwalk virus replicon plasmid under G418-selection were plated at 5×10^5 cells per well in 12-well plates and allowed to attach overnight. Afterwards, media was aspirated and replaced with fresh media containing DMSO, 5 µM WP1130, or 2.5 µM compound 9. DMSO and WP1130 remained on the cells for 24 hours, whereas compound 9 was removed after 2 hours. At the end of the experiment, media was aspirated, cells were washed once with PBS and total cellular RNA was isolated using the QIAGEN RNeasy Mini kit (QIAGEN, Valencia, CA). Following the manufacturer’s protocol, RNA was subjected to two rounds of DNase treatment. First, an on-column RNase-free DNase treatment (QIAGEN, Valencia, CA) was performed for 15 minutes at room temperature. After elution, another round of DNase treatment was performed using the DNA-free DNase removal kit (Ambion, Austin, TX). RNA concentration and purity were measured using a spectrophotometer, calculating the 260/280 ratio. RNA integrity (as well as the absence of DNA contamination) was confirmed by One-Step Reverse Transcription-Polymerase Chain Reaction (RT-PCR) using “No RT” controls. Norwalk virus genomes were then quantitated by qRT-PCR as previously described.

HG23 cells = assay: WST-1 cell viability assay in HG23 replicon cells; assay type: cell-based, human; settings: 2.5 µM for 2 h, then 22 h
Description: For cell viability assays in conditions that mimicked the viral infections, RAW264.7 cells were cultured as described above and treated for 0.5 h with 5 µM WP1130 or 2.5 µM compound 9, incubated for 1 h on ice, washed three times with ice-cold PBS and incubated for an additional 8 h in presence of DMSO and WP1130 only. One and a half hours prior to the end of the experiment, the WST-1 reagent was diluted 1 in 10 in the media. For cell viability in HG23 replicon cells, DMSO and WP1130 remained on the cells for 24 h before incubation with the WST-1 reagent, whereas compound 9 was removed after a 2 h exposure and the WST-1 reagent added after an additional 22 h.

[1] = Aqueous kinetic solubility; assay type: physicochemical

**Q.** With `CCCC(NC(=O)/C(C#N)=C/c1nc(Cl)ccc1Cl)c1ccc(OCCN2CCOCC2)cc1` (centres unmarked) [Compound 9] as the molecule, how does the “decrease in MNV-1 titers compared to DMSO-treated cells” value (MNV-1) read?
**A.** Its value is “more than 2.5 logs”.

**Q.** And the “reduction of detectable Norwalk virus genomes” value (Norwalk virus replicon)?
**A.** Its value is 84.7%.

**Q.** What about the “toxicity (WST-1 viability)” value (HG23 cells) of the same molecule?
**A.** Its value is “no toxicity”.

**Q.** What about the solubility kinetic ([1]; aqueous (not further specified)) of the same molecule?
**A.** The solubility kinetic was ~20 µM (≈ 10.1 µg/mL).

**Q.** What about the “improvement in solubility vs WP1130” value ([1]; compound 9 compared to WP1130) of the same molecule?
**A.** Its value is > 6 fold.
